Source: US20240252501A1 (MORGANDANE SCIENTIFIC, LLC, priority 2016, published 2024)
Like-named read-outs stand apart in the source and are kept apart here.

Tests used:
P-gp [1] = target: T1, P-gp (Homo sapiens, UniProt P08183); details: cell monolayers in vitro; cited from earlier work
[2] = in vivo; cited from earlier work
P-gp [3] = target: T1, P-gp; details: cited from earlier work
[4] = Plasma rivaroxaban concentration-time data and noncompartmental PK: single 20 mg rivaroxaban alone (Period I) vs with steady-state verapamil 360 mg (Period III), mild renal impairment or normal renal function; details: for CL/F / half-life / Tmax: human, in vivo; for CL/F: CL/F/kg; for half-life: t1/2
Procedure: Subjects with either mild renal impairment or with normal renal function were enrolled.
Renal function of the subjects was determined by measuring creatinine clearance (CLcr) rates. Subjects who had CLCr≥90 ml/min were categorized as having normal renal function whereas subjects who had CLcr 50-79 ml/min were categorized as mild renal impaired. Blood samples were collected and processed according to the standard protocols.

[5] = Example 1 rivaroxaban-verapamil drug-drug interaction study: rivaroxaban plasma levels; format: in vivo, human; details: concomitant verapamil vs rivaroxaban alone
Procedure: Cmax and AUC values for each dose are calculated.

prothrombin time = test: Prothrombin time (STAR Neoplastin method); format: in vivo, human
Text: As used herein, the term “prothrombin time” (PT) refers to a blood test that measures how long it takes blood to clot. In some embodiments, a prothrombin time test can be used to measure of a patient's haemostasis. In some embodiments, PT can be used to measure the effectiveness or exposure to a blood clotting drug. Persons having skill in the art sometimes interchangeably refer to a PT test as an INR. […] Additionally, PT measurements are subject to variability based on the test reagent and laboratory test ranges determined by each institution.
(§1) Additional pharmacodynamic metrics are also gathered for each patient, including, but not limited to: prothrombin time (using the STAR Neoplastin® method) and Factor Xa activity.
Blood samples were collected and processed according to the standard protocols.

Factor Xa [6] = target: T2, Factor Xa (Homo sapiens, UniProt P00742); test: Factor Xa activity in subjects; format: in vivo; details: concomitant verapamil vs rivaroxaban alone
T2 construct: host or cells: human subjects (ex vivo pharmacodynamics)
Text: as §1

[7] = Relationship between steady state rivaroxaban AUC and risk of major bleeding (FIG. 5); format: in vivo, human
Procedure: All show the geometric mean plus or minus one standard deviation. […] These four show the geometric mean and the full minimum and maximum subject value range.
Group “c” represents the average of the three subjects in Group “b” who had the highest AUCinf, which was about 8,143 μg·hr/L. The risk of major bleeding of the subjects in Group “c” were at least 5 times higher compared to the populations in Group “a” and not even visible on this scale.

[8] = Reported rivaroxaban serious bleeding adverse events; format: in vivo, human; details: concomitantly administered patients, who are 22% of total population receiving rivaroxaban
Text: 8, 2015, American Heart Association, Scientific Sessions 2015, and published at http://www.abstractsonline.com/pp8/#!/3795/presentation/37668).

[9] = fed subjects, studies 10989 and 11938, single 20 mg; cited from earlier work
[10] = cited from earlier work
Factor Xa [11] = target: T2, Factor Xa; details: 10 mg dose, cited from earlier work
[12] = cited from earlier work; remark: listed apart in the source
[13] = cited from earlier work; remark: listed apart in the source
[14] = Period III (rivaroxaban and verapamil), Group 2: Normal Renal Function, individual subjects
[15] = single 10 mg dose with a strong CYP3A4/Pgp inhibitor

T2 sequence (P00742 235-488 limits assumed): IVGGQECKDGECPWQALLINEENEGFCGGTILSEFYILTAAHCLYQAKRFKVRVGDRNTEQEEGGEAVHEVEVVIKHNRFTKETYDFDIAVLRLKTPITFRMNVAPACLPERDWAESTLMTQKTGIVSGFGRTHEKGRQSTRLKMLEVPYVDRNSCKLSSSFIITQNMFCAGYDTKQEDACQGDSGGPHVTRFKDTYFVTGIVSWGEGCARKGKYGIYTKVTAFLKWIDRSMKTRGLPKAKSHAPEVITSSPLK
T2 sequence (P00742 41-179 partner limits assumed): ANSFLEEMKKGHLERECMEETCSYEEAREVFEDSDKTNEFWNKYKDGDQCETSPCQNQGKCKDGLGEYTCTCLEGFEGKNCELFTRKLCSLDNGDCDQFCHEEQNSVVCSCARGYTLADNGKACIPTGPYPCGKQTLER
T1 sequence (P08183 whole entry): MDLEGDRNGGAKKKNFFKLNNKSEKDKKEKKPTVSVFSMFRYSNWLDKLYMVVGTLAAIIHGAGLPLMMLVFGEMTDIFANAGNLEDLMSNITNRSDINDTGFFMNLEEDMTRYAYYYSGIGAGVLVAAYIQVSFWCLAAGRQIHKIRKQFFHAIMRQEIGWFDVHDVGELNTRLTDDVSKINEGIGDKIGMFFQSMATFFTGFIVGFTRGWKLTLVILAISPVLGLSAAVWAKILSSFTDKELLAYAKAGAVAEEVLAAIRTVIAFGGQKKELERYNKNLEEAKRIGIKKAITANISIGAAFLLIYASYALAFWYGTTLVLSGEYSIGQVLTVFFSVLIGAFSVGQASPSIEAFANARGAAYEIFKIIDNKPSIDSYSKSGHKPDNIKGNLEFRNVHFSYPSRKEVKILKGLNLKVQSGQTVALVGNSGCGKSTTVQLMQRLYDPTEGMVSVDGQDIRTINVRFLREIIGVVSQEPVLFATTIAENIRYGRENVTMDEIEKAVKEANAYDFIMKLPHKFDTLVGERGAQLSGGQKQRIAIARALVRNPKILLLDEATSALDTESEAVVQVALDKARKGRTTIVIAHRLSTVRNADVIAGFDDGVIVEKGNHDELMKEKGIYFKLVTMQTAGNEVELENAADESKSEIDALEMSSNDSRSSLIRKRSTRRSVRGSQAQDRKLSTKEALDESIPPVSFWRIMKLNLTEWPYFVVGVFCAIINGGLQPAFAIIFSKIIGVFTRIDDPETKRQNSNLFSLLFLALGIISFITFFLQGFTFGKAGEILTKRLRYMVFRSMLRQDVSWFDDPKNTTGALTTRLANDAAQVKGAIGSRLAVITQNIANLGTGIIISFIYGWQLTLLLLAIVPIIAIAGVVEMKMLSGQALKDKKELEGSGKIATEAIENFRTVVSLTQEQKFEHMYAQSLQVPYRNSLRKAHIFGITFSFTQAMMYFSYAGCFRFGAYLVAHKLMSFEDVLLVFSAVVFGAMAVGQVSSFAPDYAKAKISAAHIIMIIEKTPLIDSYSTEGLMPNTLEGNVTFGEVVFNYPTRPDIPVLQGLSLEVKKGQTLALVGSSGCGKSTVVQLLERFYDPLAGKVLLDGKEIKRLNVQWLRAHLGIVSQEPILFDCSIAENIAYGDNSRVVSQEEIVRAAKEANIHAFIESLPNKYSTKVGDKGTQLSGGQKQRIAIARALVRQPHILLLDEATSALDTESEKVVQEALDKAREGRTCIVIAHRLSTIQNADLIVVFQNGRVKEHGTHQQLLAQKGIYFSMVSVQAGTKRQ

## CC[C@H]1OC(=O)[C@H](C)[C@@H](O[C@H]2C[C@@](C)(OC)[C@@H](O)[C@H](C)O2)[C@H](C)[C@@H](O[C@@H]2O[C@H](C)C[C@H](N(C)C)[C@H]2O)[C@](C)(O)C[C@@H](C)C(=O)[C@H](C)[C@@H](O)[C@]1(C)O [erythromycin]
P-gp [1]
  inhibition of P-gp-mediated efflux of rivaroxaban: did not inhibit
[2]
  renal elimination (unchanged): 2-15%

## COc1ccc(CCNCCCC(C#N)(c2ccc(OC)c(OC)c2)C(C)C)cc1OC (centres unmarked) [norverapamil]
P-gp [3]
  inhibitory potential toward P-gp: have inhibitory potential toward P-gp

## O=C(NC[C@H]1CN(c2ccc(N3CCOCC3=O)cc2)C(=O)O1)c1ccc(Cl)s1 [rivaroxaban, Rivaroxaban]
[4]; [14]
  CL/F/kg: 1.18 mL/min/kg
  CL/F: 1.11 mL/min/kg
[4]; 20 mg, Period I (rivaroxaban alone), Group 2: Normal Renal Function, outlier sample excluded, arithmetic mean
  CL/F: 1.8 mL/min/kg
[4]; 20 mg
  half-life: 9.44 h
  Tmax: 0.5 h
[4]; Period III (rivaroxaban and verapamil), Group 2: Normal Renal Function, median
  CL/F: 1.11 mL/min/kg
[4]
  half-life: 6.56 h
  Tmax: 0.5 h
[5]
  rivaroxaban plasma concentrations: higher rivaroxaban plasma concentrations
Prothrombin time; concomitant verapamil vs rivaroxaban alone
  prothrombin time (PT): prolonged PT
Prothrombin time; normal renal function and mild renal insufficiency, Day 1 and Day 15
  relationship between pharmacokinetics (plasma concentration) and pharmacodynamics (PT): clear linear relationship
Factor Xa [6]
  Factor Xa inhibition: increased Factor Xa inhibition
[7]; AUC approximately 2,026 μg·hr/L
  risk of major bleeding (Group a): about 3%
[7]; mild renal impairment, 20 mg rivaroxaban and 360 mg verapamil
  risk of major bleeding vs Group a (Group b): 2.5 times
[7]; three Group b subjects with highest AUCinf
  risk of major bleeding vs Group a (Group c): at least 5 times
[8]
  share of reported rivaroxaban serious bleeding adverse events: 30%
[9]
  AUC, average geometric mean (Group a): approximately 2,026 μg·hr/L
[10]; in vivo
  rivaroxaban dose eliminated in urine as unprocessed active drug: ~36%
  rivaroxaban dose eliminated through active renal secretion: 30%
  rivaroxaban dose eliminated through glomerular filtration: 6%
  share of rivaroxaban clearance by CYP3A4: approximately 18%
  share of rivaroxaban metabolized by CYP2J2: 14%
[10]; liver oxidative and hydrolytic pathways
  rivaroxaban dose subject to metabolic degradation: Approximately two-thirds
Factor Xa [11]; mild renal impairment
  AUEC for Factor Xa inhibition vs healthy subjects: 1.5 fold
Factor Xa [11]; moderate renal impairment
  AUEC for Factor Xa inhibition vs healthy subjects: 1.86 fold
Factor Xa [11]; severe renal impairment
  AUEC for Factor Xa inhibition vs healthy subjects: 2.0 fold
[12]; concomitant clarithromycin
  rivaroxaban exposure increase: 54%
[12]; concomitant erythromycin
  rivaroxaban exposure increase: 34%
[12]; concomitant fluconazole
  rivaroxaban exposure increase: 42%
[13]; 20 mg rivaroxaban with food, study 11938
  Cmax, upper boundary of 90% confidence interval: 317 ng/mL
[13]; 20 mg rivaroxaban
  steady state AUC, upper bound of 90% confidence interval (Label A): about 3,792 μg·hr/L
  steady state Cmax, upper bound of 90% confidence interval: 275 ng/mL
[13]; [15]
  Cmax: 268 ng/mL
  estimated steady state AUC (Label B): about 3,404 μg·hr/L
[13]; single 20 mg dose after a meal
  steady state AUC, upper boundary of 90% confidence interval (Label C): about 2,448 μg·hr/L
